Test results: paper PMC3366976, “Tuning the Drug Efflux Activity of an ABC Transporter in vivo by in vitro Selected DARPin Binders” (PLoS ONE, 2012)

Biological target: T1, LmrCD (Lactococcus cremoris, UniProt A2RI37+A2RI38, A2RI37:C179R)
T1 construct: gene lmrC
Test: biochemical

T1 sequence (A2RI37 entry or part of it C179R): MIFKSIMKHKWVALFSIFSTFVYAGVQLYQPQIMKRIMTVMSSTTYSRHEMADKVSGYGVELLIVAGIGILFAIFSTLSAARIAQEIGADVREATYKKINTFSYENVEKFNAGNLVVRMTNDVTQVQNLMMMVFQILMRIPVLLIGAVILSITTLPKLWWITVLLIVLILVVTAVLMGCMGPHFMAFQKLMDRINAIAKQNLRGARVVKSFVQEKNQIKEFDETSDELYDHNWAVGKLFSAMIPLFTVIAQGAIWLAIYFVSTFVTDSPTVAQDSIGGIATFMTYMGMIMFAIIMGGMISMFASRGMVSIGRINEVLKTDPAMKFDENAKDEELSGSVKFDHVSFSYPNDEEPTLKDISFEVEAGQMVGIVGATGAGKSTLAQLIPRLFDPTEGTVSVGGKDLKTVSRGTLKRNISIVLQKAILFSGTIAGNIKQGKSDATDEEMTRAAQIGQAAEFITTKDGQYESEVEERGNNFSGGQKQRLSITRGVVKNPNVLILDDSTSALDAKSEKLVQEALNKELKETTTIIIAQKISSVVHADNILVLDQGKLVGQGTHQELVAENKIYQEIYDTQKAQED
T1 sequence (A2RI38 entry or part of it): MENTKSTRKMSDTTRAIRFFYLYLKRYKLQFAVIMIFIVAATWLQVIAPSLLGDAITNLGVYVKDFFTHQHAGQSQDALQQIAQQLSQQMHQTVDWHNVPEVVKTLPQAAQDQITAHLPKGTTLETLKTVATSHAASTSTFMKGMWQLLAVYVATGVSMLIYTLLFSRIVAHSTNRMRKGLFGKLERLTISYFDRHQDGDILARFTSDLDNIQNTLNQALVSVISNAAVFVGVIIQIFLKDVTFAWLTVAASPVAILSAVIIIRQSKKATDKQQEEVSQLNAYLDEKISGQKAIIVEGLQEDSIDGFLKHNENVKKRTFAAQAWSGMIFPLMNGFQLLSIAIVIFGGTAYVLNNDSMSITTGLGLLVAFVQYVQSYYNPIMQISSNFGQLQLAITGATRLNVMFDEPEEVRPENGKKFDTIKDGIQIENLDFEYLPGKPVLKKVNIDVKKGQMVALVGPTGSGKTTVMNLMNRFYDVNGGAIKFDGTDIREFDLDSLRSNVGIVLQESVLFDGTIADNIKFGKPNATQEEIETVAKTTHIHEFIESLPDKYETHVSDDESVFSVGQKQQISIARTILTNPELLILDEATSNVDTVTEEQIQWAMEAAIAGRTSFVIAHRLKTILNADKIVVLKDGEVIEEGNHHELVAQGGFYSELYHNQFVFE

`[O]=[V]([OH])([OH])[OH]` [orthovanadate] showed an IC50 of 120 µM.
